Measurements as given in patent publication US11685719B2, “Pyridinone MK2 inhibitors and uses thereof” (Xinthera, Inc., priority 2021, dated 2023).

Columns and labels:
p38a/PRAK = p38a/PRAK (Homo sapiens (Human), UniProt Q16539); assay: biochemical; settings: 10-point 1:3 dilution, top dose 300 μM; 10 μM ATP, 2 h incubation; read-out: p38a/PRAK Enzyme pIC50 (converted)
Protocol: (§1) Expression vectors of the recombinant MK2 and PRAK kinases were constructed by cloning of the codon optimized gene sequences of MK2 (Uniprot ID P49137, amino acid fragment F46-H400), or PRAK (Uniprot ID Q81W41, amino acid fragment M1-Q471) into pGEX-4T1 (GE) for over expression of these kinases with N-terminal GST-tag. Protein expression was carried out in E. coli BL21 by growing the hosts in TB medium, induction of protein expression with 0.5 mM IPTG at approximate 0.8 OD600, and incubation of the cultures at 18° C. for 14-20 hours afterwards. The harvested cells were resuspended in […] of Lysis buffer (50 mM Tris-HCl, pH 8.0, 500 mM NaCl, 1 mM DTT, 5% glycerol, and 1 mM PMSF) per gram of wet cell mass and homogenized at 4° C. in a microfluidizer (ATS, Suzhou, China) at 14,000 psi pressure, 3 passes. The cell lysates were clarified by centrifugation and the supernatants containing the GST-fusion proteins were purified by affinity chromatography using GSH-Sepharose (GE) gravity flow columns pre-equilibrated in Buffer A (50 mM Tris-HCl, pH 8.0, 500 mM NaCl, 1 mM DTT, and 5% glycerol). After thorough washing of the columns with Buffer A, the bound GST-proteins were eluted by Buffer B (50 mM Tris, pH 8.0, 500 mM NaCl, 1 mM DTT, 5% glycerol, 10 mM glutathione), followed by size-exclusion purification on Superdex 200 column equilibrated in Buffer A. The purified proteins were concentrated to approximately 1 mg/ml and stored at −80° C.
(§2) This study evaluates the inhibitory potency of invention compound on p38/MK2 pathway vs p38/PRAK pathway. More specially the compound concentration (IC50) was determined that inhibited half of the maximal activation of MK2 or PRAK by p38. MK2 activation study was set up without or with a serial of 10-point 1:3 dilution of invention compound at top dose of 1 or 10 μM, and PRAK activation study was set up without or with a serial of 10-point 1:3 dilution of invention compound at top dose of 300 μM. The MIK2 and PRAK activity were determined by the phosphorylation level of HSP27 peptide conjugated with FITC.

p38a/MK2 = p38a/MK2 (Homo sapiens (Human), UniProt P49137+Q16539); assay: biochemical; settings: 10-point 1:3 dilution, top dose 1 μM; 10 μM ATP, 2 h incubation; read-out: p38a/MK2 (1 μM) Enzyme pIC50 (converted)
Protocol: as §1, §2

p38a/PRAK, sequence (Q16539 whole entry, the tested form may be a part): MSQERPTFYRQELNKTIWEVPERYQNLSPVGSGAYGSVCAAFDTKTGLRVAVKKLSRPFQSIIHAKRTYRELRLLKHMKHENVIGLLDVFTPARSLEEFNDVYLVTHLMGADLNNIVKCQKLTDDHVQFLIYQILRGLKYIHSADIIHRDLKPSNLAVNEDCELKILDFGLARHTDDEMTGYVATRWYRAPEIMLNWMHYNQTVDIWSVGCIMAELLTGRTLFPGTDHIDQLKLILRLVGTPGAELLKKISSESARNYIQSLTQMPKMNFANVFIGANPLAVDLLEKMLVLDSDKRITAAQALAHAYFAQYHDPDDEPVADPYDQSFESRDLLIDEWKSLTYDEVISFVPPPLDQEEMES
p38a/MK2, sequence (Q16539 whole entry): as the sequence (Q16539 whole entry, the tested form may be a part) above
p38a/MK2, sequence (P49137 46-400): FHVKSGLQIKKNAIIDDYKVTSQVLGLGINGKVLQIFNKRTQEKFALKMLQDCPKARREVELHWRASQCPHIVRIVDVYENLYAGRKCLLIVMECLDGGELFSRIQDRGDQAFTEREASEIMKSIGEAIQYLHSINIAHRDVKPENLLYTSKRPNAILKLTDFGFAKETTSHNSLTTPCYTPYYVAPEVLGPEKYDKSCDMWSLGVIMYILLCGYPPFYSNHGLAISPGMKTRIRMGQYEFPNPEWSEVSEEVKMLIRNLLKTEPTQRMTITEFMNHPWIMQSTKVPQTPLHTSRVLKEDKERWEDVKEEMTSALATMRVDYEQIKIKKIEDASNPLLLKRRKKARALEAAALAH

| SMILES | IC50 (p38a/PRAK) | IC50 (p38a/MK2) |
| --- | --- | --- |
| [2H]C([2H])(Oc1cc(C)n(-c2cc(-n3cccc(C(C)(C)O)c3=O)ncc2C)c(=O)c1Cl)c1ncc(F)cc1F (single isomer, unassigned) [Example 18B, rel-3″-chloro-4″-((3,5-difluoropyridin-2-yl)methoxy-d2)-3-(2-hydroxypropan-2-yl)-5′,6″-dimethyl-2H,2″H-[1,2′:4′,1″-terpyridine]-2,2″-dione] | > 316000 nM | > 100 nM |
| [2H]C([2H])(Oc1cc(C)n(-c2cc(-n3ccnc(C(C)(C)O)c3=O)ncc2C)c(=O)c1Cl)c1ncc(F)cc1F (single isomer, unassigned) [Example 19A, rel-3-chloro-4-((3,5-difluoropyridin-2-yl)methoxy-d2)-2′-(3-(2-hydroxypropan-2-yl)-2-oxopyrazin-1(2H)-yl)-5′,6-dimethyl-2H-[1,4′-bipyridin]-2-one] | 1580 nM | 1 nM |
| [2H]C([2H])(Oc1cc(C)n(-c2cc(-n3ccnc(C(C)(C)O)c3=O)ncc2C)c(=O)c1Cl)c1ncc(F)cc1F (single isomer, unassigned) [Example 19B, rel-3-chloro-4-((3,5-difluoropyridin-2-yl)methoxy-d2)-2′-(3-(2-hydroxypropan-2-yl)-2-oxopyrazin-1(2H)-yl)-5′,6-dimethyl-2H-[1,4′-bipyridin]-2-one] | > 316000 nM | 794 nM |
| [2H]C([2H])(Oc1cc(C)n(-c2cc(-n3ccnc(C(C)(C)O)c3=O)ncc2C)c(=O)c1Cl)c1ncc(Cl)cc1F (single isomer, unassigned) [Example 20A, rel-3-chloro-4-((5-chloro-3-fluoropyridin-2-yl)methoxy-d2)-2′-(3-(2-hydroxypropan-2-yl)-2-oxopyrazin-1(2H)-yl)-5′,6-dimethyl-2H-[1,4′-bipyridin]-2-one] | 3160 nM | 1 nM |
| [2H]C([2H])(Oc1cc(C)n(-c2cc(-n3ccnc(C(C)(C)O)c3=O)ncc2C)c(=O)c1Cl)c1ncc(Cl)cc1F (single isomer, unassigned) [Example 20B, rel-3-chloro-4-((5-chloro-3-fluoropyridin-2-yl)methoxy-d2)-2′-(3-(2-hydroxypropan-2-yl)-2-oxopyrazin-1(2H)-yl)-5′,6-dimethyl-2H-[1,4′-bipyridin]-2-one] | > 316000 nM | 316 nM |
| [2H]C([2H])(Oc1cc(C)n(-c2cc(-n3cccc(C(C)(C)O)c3=O)ncc2C)c(=O)c1Cl)c1ncc(Cl)cc1F (single isomer, unassigned) [Example 21A, rel-3-chloro-4-[(5-chloro-3-fluoropyridin-2-yl)(2H2)methoxy]-2′-[3-(2-hydroxypropan-2-yl)-2-oxopyridin-1-yl]-5′,6-dimethyl-[1,4′-bipyridin]-2-one] | 5010 nM | 1.26 nM |
| [2H]C([2H])(Oc1cc(C)n(-c2cc(-n3cccc(C(C)(C)O)c3=O)ncc2C)c(=O)c1Cl)c1ncc(Cl)cc1F (single isomer, unassigned) [Example 21B, rel-3-chloro-4-[(5-chloro-3-fluoropyridin-2-yl)(2H2)methoxy]-2′-[3-(2-hydroxypropan-2-yl)-2-oxopyridin-1-yl]-5′,6-dimethyl-[1,4′-bipyridin]-2-one] | > 316000 nM | > 1000 nM |
| [2H]C([2H])(Oc1cc(C)n(-c2cc(-n3ccnc(C(C)(C)O)c3=O)ncc2C)c(=O)c1Cl)c1ncc(F)cc1Cl (single isomer, unassigned) [Example 22A, rel-3-chloro-4-((3-chloro-5-fluoropyridin-2-yl)methoxy-d2)-2′-(3-(2-hydroxypropan-2-yl)-2-oxopyrazin-1(2H)-yl)-5′,6-dimethyl-2H-[1,4′-bipyridin]-2-one] | 3980 nM | 2 nM |
| [2H]C([2H])(Oc1cc(C)n(-c2cc(-n3ccnc(C(C)(C)O)c3=O)ncc2C)c(=O)c1Cl)c1ncc(F)cc1Cl (single isomer, unassigned) [Example 22B, rel-3-chloro-4-((3-chloro-5-fluoropyridin-2-yl)methoxy-d2)-2′-(3-(2-hydroxypropan-2-yl)-2-oxopyrazin-1(2H)-yl)-5′,6-dimethyl-2H-[1,4′-bipyridin]-2-one] | > 316000 nM | > 100 nM |
| [2H]C([2H])(Oc1cc(C)n(-c2cc(-n3cccc(C(C)(C)O)c3=O)ncc2C)c(=O)c1Cl)c1ncc(F)cc1Cl (single isomer, unassigned) [Example 23A, rel-4′-{3-chloro-4-[(3-chloro-5-fluoropyridin-2-yl)(2H2)methoxy]-6-methyl-2-oxopyridin-1-yl}-3-(2-hydroxypropan-2-yl)-5′-methyl-[1,2′-bipyridin]-2-one] | 6310 nM | 2.51 nM |
| [2H]C([2H])(Oc1cc(C)n(-c2cc(-n3cccc(C(C)(C)O)c3=O)ncc2C)c(=O)c1Cl)c1ncc(F)cc1Cl (single isomer, unassigned) [Example 23B, rel-4′-{3-chloro-4-[(3-chloro-5-fluoropyridin-2-yl)(2H2)methoxy]-6-methyl-2-oxopyridin-1-yl}-3-(2-hydroxypropan-2-yl)-5′-methyl-[1,2′-bipyridin]-2-one] | > 316000 nM | > 100 nM |
| Cc1cnc(-n2ccnc(C(C)(C)O)c2=O)cc1-n1c(C)cc(OCc2ncc(F)cc2Cl)c(Cl)c1=O (single isomer, unassigned) [Example 24A, rel-3-chloro-4-[(3-chloro-5-fluoropyridin-2-yl)methoxy]-2′-[3-(2-hydroxypropan-2-yl)-2-oxopyrazin-1-yl]-5′,6-dimethyl-[1,4′-bipyridin]-2-one] | > 316000 nM | > 1000 nM |
| Cc1cnc(-n2ccnc(C(C)(C)O)c2=O)cc1-n1c(C)cc(OCc2ncc(F)cc2Cl)c(Cl)c1=O (single isomer, unassigned) [Example 24B, rel-3-chloro-4-[(3-chloro-5-fluoropyridin-2-yl)methoxy]-2′-[3-(2-hydroxypropan-2-yl)-2-oxopyrazin-1-yl]-5′,6-dimethyl-[1,4′-bipyridin]-2-one] | 5010 nM | 2.51 nM |
| Cc1cnc(-n2cccc(C(C)(C)O)c2=O)cc1-n1c(C)nc(OCc2ncc(F)cc2F)c(Cl)c1=O (single isomer, unassigned) [Example 25A, rel-4′-{5-chloro-4-[(3,5-difluoropyridin-2-yl)methoxy]-2-methyl-6-oxopyrimidin-1-yl}-3-(2-hydroxypropan-2-yl)-5′-methyl-[1,2′-bipyridin]-2-one] | 6310 nM | 3.98 nM |
| Cc1cnc(-n2cccc(C(C)(C)O)c2=O)cc1-n1c(C)nc(OCc2ncc(F)cc2F)c(Cl)c1=O (single isomer, unassigned) [Example 25B, rel-4′-{5-chloro-4-[(3,5-difluoropyridin-2-yl)methoxy]-2-methyl-6-oxopyrimidin-1-yl}-3-(2-hydroxypropan-2-yl)-5′-methyl-[1,2′-bipyridin]-2-one] | > 316000 nM | 631 nM |
| [2H]C([2H])(Oc1cc(C)n(-c2cc(-n3ccc(F)c(C(C)(C)O)c3=O)ncc2C)c(=O)c1Cl)c1ncc(F)cc1F (single isomer, unassigned) [Example 26A, rel-3-chloro-4-[(3,5-difluoropyridin-2-yl)(2H2)methoxy]-2′-[4-fluoro-3-(2-hydroxypropan-2-yl)-2-oxopyridin-1-yl]-5′,6-dimethyl-[1,4′-bipyridin]-2-one] | 3160 nM | 2.51 nM |
| [2H]C([2H])(Oc1cc(C)n(-c2cc(-n3ccc(F)c(C(C)(C)O)c3=O)ncc2C)c(=O)c1Cl)c1ncc(F)cc1F (single isomer, unassigned) [Example 26B, rel-3-chloro-4-[(3,5-difluoropyridin-2-yl)(2H2)methoxy]-2′-[4-fluoro-3-(2-hydroxypropan-2-yl)-2-oxopyridin-1-yl]-5′,6-dimethyl-[1,4′-bipyridin]-2-one] | > 316000 nM | > 100 nM |
| Cc1cnc(-n2ccn(C(C)(C)CO)c2=O)cc1-n1c(C)cc(OCc2ncc(F)cc2F)c(Cl)c1=O (single isomer, unassigned) [Example 27A, rel-3-chloro-4-[(3,5-difluoropyridin-2-yl)methoxy]-2′-[3-(1-hydroxy-2-methylpropan-2-yl)-2-oxoimidazol-1-yl]-5′,6-dimethyl-[1,4′-bipyridin]-2-one] | > 316000 nM | > 100 nM |
